pKi: −log10 of the molar value.
Tests used:
[1] = target: Sodium-dependent dopamine transporter (Homo sapiens, UniProt Q01959)
[2] = target: Sodium-dependent noradrenaline transporter (Homo sapiens, UniProt P23975)
Chain of Sodium-dependent noradrenaline transporter (P23975 whole entry): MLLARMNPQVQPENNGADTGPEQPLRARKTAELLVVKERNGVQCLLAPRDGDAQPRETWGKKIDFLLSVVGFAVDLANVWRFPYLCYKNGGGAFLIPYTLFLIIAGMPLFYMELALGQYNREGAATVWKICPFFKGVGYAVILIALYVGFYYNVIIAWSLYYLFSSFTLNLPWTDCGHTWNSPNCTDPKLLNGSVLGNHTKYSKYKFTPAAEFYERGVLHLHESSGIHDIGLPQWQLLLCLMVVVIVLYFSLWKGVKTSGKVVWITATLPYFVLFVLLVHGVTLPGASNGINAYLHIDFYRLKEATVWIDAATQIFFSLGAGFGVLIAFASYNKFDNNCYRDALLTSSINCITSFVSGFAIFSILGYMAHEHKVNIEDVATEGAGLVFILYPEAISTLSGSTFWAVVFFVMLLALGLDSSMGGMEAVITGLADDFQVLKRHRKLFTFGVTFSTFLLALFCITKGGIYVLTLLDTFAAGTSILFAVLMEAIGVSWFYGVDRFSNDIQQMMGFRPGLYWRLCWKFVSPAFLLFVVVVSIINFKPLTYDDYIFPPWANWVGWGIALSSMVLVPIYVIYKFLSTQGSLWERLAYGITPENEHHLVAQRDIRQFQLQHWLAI

Chain of Sodium-dependent dopamine transporter (Q01959 whole entry): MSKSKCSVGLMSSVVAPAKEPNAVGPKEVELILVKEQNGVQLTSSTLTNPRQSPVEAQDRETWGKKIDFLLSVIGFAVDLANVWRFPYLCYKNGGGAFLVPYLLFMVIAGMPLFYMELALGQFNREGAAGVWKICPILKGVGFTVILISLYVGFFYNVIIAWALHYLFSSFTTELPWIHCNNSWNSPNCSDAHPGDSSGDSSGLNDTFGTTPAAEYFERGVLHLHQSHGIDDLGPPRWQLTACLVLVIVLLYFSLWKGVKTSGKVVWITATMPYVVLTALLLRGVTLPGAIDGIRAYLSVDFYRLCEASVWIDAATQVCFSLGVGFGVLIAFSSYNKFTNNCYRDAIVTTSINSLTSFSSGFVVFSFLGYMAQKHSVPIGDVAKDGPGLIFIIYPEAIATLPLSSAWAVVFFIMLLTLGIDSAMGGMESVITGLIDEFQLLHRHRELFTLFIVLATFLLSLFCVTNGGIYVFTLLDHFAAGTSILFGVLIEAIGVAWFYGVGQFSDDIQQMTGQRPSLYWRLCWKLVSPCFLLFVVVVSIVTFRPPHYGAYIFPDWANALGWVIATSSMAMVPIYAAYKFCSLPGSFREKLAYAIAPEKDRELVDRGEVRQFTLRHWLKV

Molecule `COC(=O)C1C(c2ccc(Cl)cc2)CC2CCC1N2CCF` (configuration not stated) [MOLI000038] has a pKi [1] of 8.82 and a pKi [2] of 6.62.

From BindingDB's records for doi:10.1016/s0969-8051(99)00080-3 (Emory University, 2000)
